The values that follow come from ChEMBL document CHEMBL3507680, “University of Dundee, Gates Library screen for HepG2 cell viability”.

A short description of the data set: Human HepG2 cell viability assay in 384 well format. The format is toxicity, cell-based. Also on record: dose 125 nL, time 70.5 hour; concentration not given beside the values. Conditions: HepG2 cells, read-out: Inhibition.
Take `Cn1cc(CNc2cnn(CC3CCCO3)c2)c(-c2ccncc2)n1` (stereo not drawn): the cytotoxicity at 70.5 h came out at 4.43%.
Next, `COc1ccccc1-n1nc(CC(C)C)nc1Cc1nnc(N)s1`: 5.97%.
Consider `O=C(c1ccc2c(c1)OCO2)N1CCC(Nc2cccnn2)CC1`, for which the cytotoxicity at 70.5 h stood at 9.12%.
Next, `COc1ccc(S(=O)(=O)NC2(CC(N)=O)CCC2)cc1`: 20.9%.
`Cc1ccccc1C(=O)N1CC(C(=O)NCC2CC2)C2(CCOCC2)C1` (stereo not drawn): the cytotoxicity at 70.5 h was -1.13%.
For the compound `Cc1cccc(CN2Cc3nccn3CC(CN3CCOCC3)C2)c1` (stereo not drawn), the cytotoxicity at 70.5 h is -9.03%.
The figure for `C=C(C)CN(CC)S(=O)(=O)c1c(F)cc(NC(C)=O)cc1F` is -3.3%; for `O=C(NCCc1nncn1C1CC1)c1cnn(Cc2ccccc2)c1` it is -11.1%; for `Cn1nnc2cc(C(=O)NS(=O)(=O)Cc3ccc(F)cc3)ccc21` it is -12.6%.
Next, `Cc1cccnc1NCCNC(=O)c1cnc(-c2ccccn2)nc1O`: 46.5%; `CCc1nc(-c2ccc(NC(=O)N3CCCC3)cc2)no1`: -19.3%.
Next, `Cc1ccccc1CC(=O)N1CC[C@@](O)(CNS(C)(=O)=O)[C@H](O)C1`: 0.727%.
In the case of `Cn1cccc1C(=O)N1CCCCC1c1ccn2ccnc2n1` (stereo not drawn), the cytotoxicity at 70.5 h is -1.33%.
The figure for `CNC(=O)[C@@H]1COC[C@H]2CN(C(=O)c3ccc(OC)cc3)C[C@H]21` is -2.56%; for `CCc1nc(C)c(C(C)N(C)CCc2ccccn2)s1` (stereo not drawn) it is 9.61%.
The figure for `Cc1nc(N)nc(C)c1Cc1nc(C2CC2)n[nH]1` is -0.863%; for `Cc1nc(C)n(CC2CCCN(CCOc3ccccc3F)C2)n1` (stereo not drawn) it is 28.7%; for `CC(C)N1CCN(C(=O)c2[nH]nnc2Nc2ccccc2F)CC1` it is 16.4%.
Next, `CC(C)c1n[nH]c(C(=O)Nc2ccccn2)c1Br`: 12.4%.
`CCO[C@H]1CN(C(=O)c2ccc3c(c2)OCO3)[C@@H]2COC[C@H]12`: the cytotoxicity at 70.5 h was -2.21%.
Next, `CN(C)S(=O)(=O)N1CCC(Oc2cnccn2)CC1`: -0.386%.
With `Cc1nc(C)c(CC(=O)NCc2ccc(F)cc2)s1`, the cytotoxicity at 70.5 h is -11.4%.
Take `CCN(Cc1cnn(C)c1)C(=O)c1ccc(C)c(N2CCNC2=O)c1`: the cytotoxicity at 70.5 h is -17.2%.
Regarding `Cc1ccc(CN2CC[C@H]3[C@H]2CC(=O)N3c2ccsc2)o1`, the cytotoxicity at 70.5 h is 5.86%.
The figure for `Cc1ccsc1-c1nc(CN(C)Cc2cc[nH]n2)c(C)o1` is 12.8%.
The figure for `CCC(=O)N1CCCC(C(=O)NCc2noc(Cc3ccccc3)n2)C1` (stereo not drawn) is -12.1%; for `CC(C)COCC(NC(=O)c1cccnc1)c1ccco1` (stereo not drawn) it is -9.01%.
As to `COCc1nn(C(C)C)c2c1CCN(Cc1ccc(C)o1)C2`, the cytotoxicity at 70.5 h was -4.09%.
The figure for `CCc1nc2n(n1)CCCC2Nc1nc(C(C)C)ns1` (stereo not drawn) is -9.57%; for `O=C(NCCCn1cccn1)C1CCC(=O)N(Cc2ccccc2F)C1` (stereo not drawn) it is 4.27%; for `Cc1ccc(C(=O)N2CCC(Oc3ccc(F)cc3F)CC2)c(=O)[nH]1` it is 31.6%.
The figure for `CCN1CCC(NC(=O)CN2CCCC2Cn2cccn2)CC1` (stereo not drawn) is 32.9%; for `CCc1cc(N2C[C@H](C3CC3)[C@@H](N)C2)nc(N2CCCC2)n1` it is 18.8%.
Next, `Cc1ccc(F)c2c1CCCN2CC(=O)NC1CCS(=O)(=O)C1` (stereo not drawn): -4.5%; `CNc1ncc(CN(C)C(=O)c2ccccc2C2CCNC2)cn1` (stereo not drawn): 1.83%; `CN(CC(=O)NCCc1ccccn1)C(=O)c1cccs1`: -19.9%.
`CC(=O)N1CCOC(CCc2cc(-c3c(C)noc3C)ncn2)C1` (stereo not drawn): the cytotoxicity at 70.5 h is -0.21%.
The figure for `CC1CCCN(Cc2ccc(CNC(=O)NCc3ccncc3)cc2)C1` (stereo not drawn) is -5.32%.
Next, `COc1c(CNC(c2nccn2C)C(C)C)c(C)nn1C` (stereo not drawn): -6.48%; `OCCc1cc(C2CCCN2c2ncccn2)n[nH]1` (stereo not drawn): -2.35%; `Cn1cc(-c2cc(C(F)F)n3nc(CCC(=O)O)nc3n2)cn1`: -4.35%.
Next, `Cn1cc(CN2CC[C@H]3O[C@H](C(=O)NCc4ccco4)CC[C@H]32)cn1`: -12.4%; `CNS(=O)(=O)c1cccc(CNc2ccc(C(F)(F)F)nn2)c1`: -3.47%; `Cc1cnn(CC2CCCN2C(=O)c2cccc(F)c2F)c1` (stereo not drawn): -1.26%.
Consider `NC(=O)c1cnc2n1CCN(C(=O)c1ccc(Cn3cccc3)cc1)C2`, for which the cytotoxicity at 70.5 h was 5.38%.
Next, `Cc1nn(C)c(Cl)c1C1CCCN1C(=O)c1ccc2c(c1)COC2` (stereo not drawn): -0.781%; `CNc1snc(C)c1C(=O)N1CCCC(n2nc(C)nc2C)C1` (stereo not drawn): -10.6%; `O=C(NCc1cccnc1N1CCCCC1)c1ccc2cc[nH]c2c1`: -15.2%.
Next, `COc1ccc(CN2C[C@H]3CCC[C@@H](CN(C)C4CC4)[C@H]3C2)cn1`: 10.8%.
The figure for `CN1CCN([C@@H]2CCN(C(N)=O)[C@H]2Cc2ccccc2)CC1` is -0.0899%; for `COCC(O)CN1CCC(=O)N(Cc2ccco2)Cc2ccccc21` (stereo not drawn) it is 26.6%; for `O=C(C1CCOC1)N1C[C@H]2CN(Cc3nccs3)C[C@H]2C1` (stereo partly drawn) it is -2.75%.
With `CN1CC2(CCCN(C(=O)c3cnc4ccc(F)cc4c3O)C2)OC1=O` (stereo not drawn), the cytotoxicity at 70.5 h was -6.43%.
Regarding `Cc1nccn1-c1ccc(NC(=O)C2CCCN2CC2CC2)cc1` (stereo not drawn), the cytotoxicity at 70.5 h was -1.14%.
Regarding `C[C@@H]1CN(C(=O)C2CCS(=O)(=O)CC2)C[C@@]1(O)C1CC1`, the cytotoxicity at 70.5 h is -19.6%.
Next, `Cc1nc(CN2CCC(CNC(=O)NCCC3CCC3)CC2)oc1C`: 0.076%.
For the compound `COc1cc(-c2ccc(F)c3c2OC(CN)C3)cc(OC)c1OC` (stereo not drawn), the cytotoxicity at 70.5 h is 6.54%.
The figure for `CCc1nc(CC(=O)Nc2cnn(CC3CCCO3)c2)cs1` (stereo not drawn) is -7.79%; for `Cc1ccc(-c2nc(CNCC3CN(C)CCO3)cs2)o1` (stereo not drawn) it is 18.6%; for `COCCC1(CO)CCCN(C(=O)c2cccnc2OC)C1` (stereo not drawn) it is -5.91%.
As to `N#CCCSc1sc2c(O)cc(O)nc2c1C#N`, the cytotoxicity at 70.5 h is 13.6%.
The figure for `CCOC(C(=O)N1CCn2c(nnc2C(C)C)C1)c1ccccc1` (stereo not drawn) is 19.3%.
The figure for `CC(C)n1cc(N2CC(C(=O)N3CCN(C)CC3)CC2=O)cn1` (stereo not drawn) is -10.8%; for `CC(NC(=O)NCCCc1n[nH]c(N)c1C#N)c1ccc(F)cc1` (stereo not drawn) it is -6.13%.
Next, `Cc1nccn1C1CCCN(C(=O)c2ccc3c(c2)COC3)C1` (stereo not drawn): -3.92%.
As to `COc1ccccc1COCC(O)CN1CC(n2cccn2)C1` (stereo not drawn), the cytotoxicity at 70.5 h is -10.8%.
The figure for `COc1ccccc1N1CCC(N2CCOCC(CO)C2)CC1` (stereo not drawn) is -6.73%; for `CN(C)C(=O)CCNC(=O)c1cnc(-c2ccccc2)nc1` it is -5.51%.
Next, `CC(C)NC(=O)N1CCC2(CC(C(=O)NCc3cccnc3)=NO2)C1` (stereo not drawn): -11.9%.
Next, `COCCCN(CCOC)C(=O)Nc1ccccc1-n1cccn1`: 2.41%; `CCS(=O)(=O)N1CC[C@@H]2[C@H](COCC3CC3)CN(C)C(=O)[C@@H]2CC1`: -5.95%.
For the compound `O=C(Cc1ccon1)N1CCc2cc(Br)sc2C1`, the cytotoxicity at 70.5 h was -3.84%.
The figure for `COc1ccc(CNC(=O)NCc2nc(C)c(C)s2)cn1` is -5.21%.
Turning to `CCN(CCS(=O)(=O)c1ccc(Cl)cc1)Cc1ccc(OC)c(OC)c1`, the cytotoxicity at 70.5 h was -12.9%.
The figure for `CCNC(=O)[C@@H]1C[C@H](N)CN1C(=O)Cc1cc(C)ccc1C` is -12.9%; for `Cn1cc(CCC(=O)N2C[C@@H]3CC[C@H](C2)N(Cc2ccccn2)C3)cn1` it is -14%; for `CCn1nc(C)cc1C(=O)N1CCC(Nc2ccc(C)nn2)CC1` it is -85.5%.
The figure for `COCc1cn(C2CCN(C(=O)c3ccc(F)c(C)c3)CC2)nn1` is -6.36%.
The figure for `O=C(NC1CC(=O)N(C2Cc3ccccc3C2)C1)c1cnccn1` (stereo not drawn) is -4.83%.
Consider `NC(=O)COc1ccc(C2NC(=O)CN2Cc2ccc(Br)cc2)cc1` (stereo not drawn), for which the cytotoxicity at 70.5 h is -14.8%.
Next, `Cc1nccn1C1CCCN(C(=O)c2ccc3nnc(C)n3c2)C1` (stereo not drawn): 14.1%.
`CCN(C(=O)c1cc(C)nc2ccccc12)C1CC(=O)NC1=O` (stereo not drawn): the cytotoxicity at 70.5 h was -1.78%.
Next, `CCc1c(C)nc(C2CCCN2C(=O)c2cc(C)no2)nc1O` (stereo not drawn): 10.5%; `O=C(Cc1ccc(F)cc1)NCCc1ccoc1`: -5.69%; `CCOc1cc(C(=O)n2cc(C)cn2)cc(OCC)c1OCC`: 1.34%.
Next, `Cc1noc([C@@H]2C[C@H]3OCC[C@H]3N(S(=O)(=O)c3ccccc3)C2)n1`: -1.71%.
The figure for `O=C1OCCN1C1CCN(Cc2cc3n(n2)CCCNC3)CC1` is 17.1%; for `Cc1ncc(CN2CCc3nc4cc(C(C)(C)C)nn4c(O)c3C2)n1C` it is 7.3%; for `CNc1nc(CS(=O)(=O)c2ccccc2)cs1` it is -7.87%.
On to `Cc1nc2c(c(NC(C)C)n1)CCN(Cc1cccnc1)CC2`, for which the cytotoxicity at 70.5 h came out at 4.65%.
Next, `CS(=O)(=O)NCC1CCCCN1C(=O)Nc1cccnc1N1CCCC1` (stereo not drawn): 39.8%; `CS(=O)(=O)N1CCC2(CC1)COC(COc1cccnc1)C2` (stereo not drawn): -8.18%; `CNS(=O)(=O)CC1CCCN1c1ccccn1` (stereo not drawn): -4.24%.
The figure for `CCn1c(N)nc2cc(C(=O)NCCCc3ccccn3)cnc21` is -15%; for `CN1CCN(Cc2ccccc2Oc2cncc(C(N)=O)n2)CC1` it is -3.62%.
Next, `COc1ccccc1N1CCC(CNCc2c(C)nn(C)c2OC)C1` (stereo not drawn): 0.53%; `Cc1cccc(C2CCCN(C(=O)CN3CCOC3=O)C2)c1` (stereo not drawn): -17.6%.
`CCOCc1cncc2c1CCN(C(=O)c1cscn1)C2`: the cytotoxicity at 70.5 h was -4.56%.
